In the METLIN SMRT retention time set (Domingo-Almenara et al. 2019):

Assay: gradient 5% acetonitrile 3 min, to 50% in 2 min, to 85% in 15 min, held 3 min, 100 µL/min
Details: column: Zorbax Extend-C18 2.1 x 50 mm; eluents: water / acetonitrile, 0.1% formic acid
Procedure, shortened: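 Retention time was recorded from adduct peaks, which were picked computationally and each inspected manually. Pure standards ran in mixtures of ~100 molecules on HPLC coupled to a quadrupole time-of-flight mass spectrometer, in positive and negative ionization mode, through a Zorbax Extend-C18 column (2.1 × 50 mm, 1.8 μm) at 100 μL/min. Eluents were water and acetonitrile, each with 0.1% formic acid.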

| RP-LC retention time [s] | SMILES |
| --- | --- |
| 1060 | O=C(Nc1cccc(Br)c1)C(=O)c1c[nH]c2ccccc12 |
| 670 | CNC(=O)[C@@H]1C[C@H](Oc2ccccc2)CN1C(=O)c1ccco1 |
| 728 | CCCNc1cc(N2CCCC(CCC(=O)Nc3ccc(OCC)cc3)C2)ncn1 (stereo not drawn) |
| 928 | COCc1nc(C2CCN(S(=O)(=O)c3ccc4c(c3)CCC4)C2)no1 (stereo not drawn) |
| 779 | CCN1C(=O)C2(CCN(C(=O)C3CC3)CC2)c2ccccc21 |
| 744 | COc1ccc(CC(=O)NC(C(=O)Nc2nc3ccccc3[nH]2)C(C)C)c(Cl)c1 (stereo not drawn) |
| 777 | COc1cccc(CNC(=O)c2ccc3c(c2)nc2n3CCN(Cc3ccccc3)C2=O)c1 |
| 927 | Cn1cc(C2=CCN(S(=O)(=O)c3ccccc3)CC2)c2cccnc21 |
| 764 | CCc1nc(NC(=O)Cn2nc3c(cc2=O)CCCC3)sc1C |
| 892 | Cc1[nH]c(C(=O)N2CCCC(C(=O)NCCCc3ccccc3)C2)c(C)c1C(=O)OC(C)C (stereo not drawn) |
| 1070 | Cc1ccc(C(C)NC(=O)C2CCN(c3nccnc3Oc3ccccc3)CC2)cc1C (stereo not drawn) |
| 598 | O=C(Nc1c(-c2ccccc2)nc2ccccn12)c1ccco1 |
| 752 | O=C1NCCCCCN(C(=O)c2ccco2)[C@@H]2C[C@@H](C(=O)N3CCc4ccccc4C3)C[C@H]12 |
| 773 | CCNC(=O)CCc1nc2ccccc2n(CC(=O)NCCc2ccc(Cl)cc2)c1=O |
| 579 | CCNC(=O)NCCc1cn(CCOC)c2ncccc12 |
| 854 | Cc1ccc(CNC(=O)C2(C)CN(S(C)(=O)=O)CC(=O)N2c2cccc(Cl)c2)cc1 (stereo not drawn) |
| 702 | CCC(NC(=O)C1CCN(c2cnc3nccnc3c2)CC1)c1cccs1 (stereo not drawn) |
| 785 | COc1ccc(S(=O)(=O)N2CCCC(C(=O)NCC3CCCO3)C2)cc1Cl (stereo not drawn) |
| 678 | COc1ccc(NC(=O)Cn2nc3n(c2=O)CCCCC3)c(OC)c1 |

| RP-LC retention time [s] | SMILES |
| --- | --- |
| 552 | O=C([C@@H]1C[C@H](Oc2cccnc2)CN1C(=O)c1cnccn1)N1CCCC1 |
| 868 | COc1ccc(Cl)cc1NS(=O)(=O)c1cc2n(c1)CCN(CC(C)C)C2=O |
| 841 | FC(F)Sc1ccc(-c2cn3cc(Cl)ccc3n2)cc1 |
| 640 | Cc1cc(C)c2nc(Nc3nccc(C)n3)nc(C)c2c1 |
| 746 | Cc1ccc(NC(=O)C2CCCN(c3cc(=O)n(C)c(=O)n3C)C2)cc1C (stereo not drawn) |
| 551 | CN1CCN(c2cc(C(=O)O)c3cc(F)ccc3n2)CC1 |
| 840 | CCN1C(=O)c2cc(C(=O)N3CCN(c4ccccc4F)CC3)nn2CC1(C)C(=O)NC1CCCC1 (stereo not drawn) |
| 790 | CCOc1ccc(C(=O)N2CCC3(CC2)NC(=O)c2cccc(Cl)c2N3)cc1 |
| 986 | CCn1nccc1-c1cccc(-c2noc(CNS(=O)(=O)c3ccc(Cl)cc3)n2)c1 |
| 689 | CC(C)NC(=O)C1CCCN(c2nc3ncn(CC(=O)NCc4ccc(F)cc4)c(=O)c3s2)C1 (stereo not drawn) |
| 764 | O=C(NCc1ccccc1F)C1CCN(c2nnc3ccc(C(F)(F)F)cn23)CC1 |
| 687 | O=C(CSc1nncc2ccccc12)NCCc1ccccc1 |
| 657 | COc1ccc(N2CCN(CC(O)c3cccc(OC)c3)CC2)cc1 (stereo not drawn) |
| 759 | CCN1C(=O)COc2ccc(-c3nc(NC(C)=O)sc3C)cc21 |
| 527 | CC(=O)Nc1ccc(SCc2ccccn2)nn1 |
| 558 | O=C(CCC1CCCN(c2cc(NC3CC3)ncn2)C1)NCc1ccccn1 (stereo not drawn) |
| 830 | COCc1noc([C@@H]2CC(F)(F)CN2C(=O)CC(C)(C)C)n1 |
| 851 | CCC(C)NC(=O)c1cc2n(n1)CCCN(Cc1cccc(C)c1)C2=O (stereo not drawn) |
| 566 | COCCCNC(=O)c1ccc2c(c1)nc1n2CCCCC1 |
